Compound in test [1]: C[C@@H](Oc1cc(-c2cnn(C3CCNCC3)c2)cnc1N)c1c(Cl)ccc(F)c1Cl [CRIZOTINIB]
The test can be described thus: surviving fraction relative to DMSO-only wells; higher = less growth inhibition. The note with it: exposure time: 5 days. The procedure, abridged: (§1)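 In 384-well plates, 250–500 log-phase tumour cells per well were given 24 hours before five days of continuous exposure to inhibitors at 0.5, 1, 5, 10, 50, 100, 500 and 1000 nM. Surviving fraction is luminescence from CellTiter-Glo, normalised to the median of wells containing DMSO alone. Reading took place after 10 minutes at room temperature.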

Compound in test [2]: CN1CCN(c2nc(C3=C(c4c[nH]c5ccccc45)C(=O)NC3=O)c3ccccc3n2)CC1 [SOTRASTAURIN/AEB071]
The test is described as above. The settings on record: exposure time: 5 days. The procedure, abridged: as §1

± gives the standard deviation of the averaged measurements.

In the case of MG63 BONE, the surviving fraction was determined as 1.05 ± 0.04 in test [1] (0.5 nM); 1.07 ± 0.053 in test [1] (1 nM); 1.11 ± 0.043 in test [1] (10 nM); 1.07 ± 0.051 in test [1] (50 nM); 1 ± 0.052 in test [1] (100 nM); 0.827 ± 0.034 in test [1] (500 nM). The surviving fraction in test [1] (1000 nM) was found to be 0.743 ± 0.031; in test [2] (0.5 nM), 1.02 ± 0.053; in test [2] (1 nM), 1.05 ± 0.047; in test [2] (5 nM) it was 1.06 ± 0.049; in test [2] (10 nM), 1.09 ± 0.027; in test [2] (50 nM), 1.07 ± 0.04. The surviving fraction in test [2] (100 nM) worked out at 1.03 ± 0.065; in test [2] (500 nM), 1.02 ± 0.042; in test [2] (1000 nM), 0.937 ± 0.029.

Consider SG28 HEADNECK, for which the surviving fraction in test [1] (0.5 nM) was 1.06 ± 0.052; in test [1] (1 nM), 1.18 ± 0.1; in test [1] (10 nM) it was 1.22 ± 0.055; in test [1] (50 nM), 1.08 ± 0.025; in test [1] (100 nM) it was 1.15 ± 0.12; in test [1] (500 nM) it was 1.044 ± 0.0092. For the same test system, the surviving fraction in test [2] (0.5 nM) turned out to be 1.116 ± 0.011; in test [2] (1 nM), 1.107 ± 0.0035; in test [2] (5 nM), 0.956 ± 0.12; in test [2] (10 nM), 1.024 ± 0.0085; in test [2] (50 nM), 0.821 ± 0.039; in test [2] (100 nM), 0.79 ± 0.14. The figures for the surviving fraction in test [2] (500 nM) and in test [2] (1000 nM) were 0.8065 ± 0.0078 and 0.843 ± 0.088, respectively.

On to CME SYNOVIAL, for which the surviving fraction is 1.23 ± 0.11 in test [1] (0.5 nM); 1.23 ± 0.1 in test [1] (1 nM); 1.36 ± 0.16 in test [1] (5 nM); 1.21 ± 0.1 in test [1] (50 nM); 1.18 ± 0.022 in test [1] (100 nM); 0.65 ± 0.035 in test [1] (500 nM). The surviving fraction in test [1] (1000 nM) amounted to 0.286 ± 0.033; in test [2] (0.5 nM), 1.28 ± 0.26; in test [2] (1 nM) it was 1.3 ± 0.18; in test [2] (5 nM), 1.31 ± 0.13; in test [2] (10 nM), 1.38 ± 0.22; in test [2] (50 nM) it was 0.978 ± 0.13. For the same test system, the surviving fraction in test [2] (100 nM) amounted to 1.21 ± 0.2; in test [2] (500 nM) it was 1.14 ± 0.059; in test [2] (1000 nM), 1.12 ± 0.059.

Turning to MDAMB361 BREAST, the surviving fraction in test [1] (0.5 nM) came to 0.815 ± 0.053; in test [1] (1 nM), 0.898 ± 0.094; in test [1] (5 nM), 0.881 ± 0.035; in test [1] (10 nM), 0.848 ± 0.079; in test [1] (50 nM) it was 0.828 ± 0.07; in test [1] (500 nM), 0.882 ± 0.067. In addition, the surviving fraction is 1.03 ± 0.095 in test [1] (1000 nM); 0.708 ± 0.053 in test [2] (0.5 nM); 0.758 ± 0.065 in test [2] (1 nM); 0.76 ± 0.12 in test [2] (5 nM); 0.776 ± 0.026 in test [2] (10 nM); 0.577 ± 0.099 in test [2] (50 nM). The surviving fraction in test [2] (100 nM) is 0.561 ± 0.073; in test [2] (500 nM) it was 0.626 ± 0.099; in test [2] (1000 nM) it was 0.591 ± 0.066.

Take MCF7 BREAST: the surviving fraction came to 0.963 ± 0.04 in test [1] (0.5 nM); 0.967 ± 0.011 in test [1] (5 nM); 0.968 ± 0.042 in test [1] (10 nM); 1 ± 0.025 in test [1] (50 nM); 0.981 ± 0.021 in test [1] (100 nM); 1 ± 0.05 in test [1] (500 nM). The surviving fraction was 0.617 ± 0.035 in test [1] (1000 nM); 0.925 ± 0.066 in test [2] (0.5 nM); 0.917 ± 0.043 in test [2] (1 nM); 0.945 ± 0.052 in test [2] (5 nM); 0.935 ± 0.036 in test [2] (10 nM); 0.941 ± 0.036 in test [2] (50 nM). In addition, the surviving fraction in test [2] (100 nM) was determined as 0.941 ± 0.068; in test [2] (500 nM), 0.941 ± 0.053; in test [2] (1000 nM), 0.966 ± 0.017.

On to CAL120 BREAST, for which the surviving fraction in test [1] (0.5 nM) came out at 0.969 ± 0.069; in test [1] (1 nM), 1 ± 0.076; in test [1] (5 nM) it was 0.982 ± 0.038; in test [1] (50 nM), 1 ± 0.04; in test [1] (100 nM) it was 1.01 ± 0.049; in test [1] (500 nM), 0.933 ± 0.012. The surviving fraction in test [1] (1000 nM) amounted to 0.685 ± 0.026; in test [2] (0.5 nM), 1.03 ± 0.042; in test [2] (1 nM), 1.01 ± 0.054; in test [2] (5 nM), 1.01 ± 0.03; in test [2] (10 nM), 1.02 ± 0.035; in test [2] (50 nM), 0.985 ± 0.051. Also, the surviving fraction was 0.955 ± 0.035 in test [2] (100 nM), 0.976 ± 0.046 in test [2] (500 nM) and 0.981 ± 0.009 in test [2] (1000 nM).

As to HU09 BONE, the surviving fraction in test [1] (0.5 nM) came to 0.86 ± 0.084; in test [1] (1 nM), 0.956 ± 0.13; in test [1] (5 nM) it was 1.13 ± 0.099; in test [1] (10 nM), 1.14 ± 0.06; in test [1] (50 nM), 1.02 ± 0.044; in test [1] (100 nM), 1.02 ± 0.042. Further, the surviving fraction was found to be 0.511 ± 0.063 in test [1] (500 nM); 0.233 ± 0.048 in test [1] (1000 nM); 0.957 ± 0.092 in test [2] (0.5 nM); 1.03 ± 0.088 in test [2] (1 nM); 1.08 ± 0.075 in test [2] (5 nM); 1.1 ± 0.075 in test [2] (10 nM). Also, the surviving fraction is 0.898 ± 0.085 in test [2] (50 nM), 0.929 ± 0.11 in test [2] (100 nM), 0.851 ± 0.026 in test [2] (500 nM) and 0.925 ± 0.11 in test [2] (1000 nM).

On to JIMT1 BREAST, for which the surviving fraction came out at 1.01 ± 0.029 in test [1] (0.5 nM); 1.01 ± 0.029 in test [1] (1 nM); 1.03 ± 0.012 in test [1] (5 nM); 1 ± 0.032 in test [1] (10 nM); 1.07 ± 0.045 in test [1] (50 nM); 1.08 ± 0.036 in test [1] (100 nM). Also, the surviving fraction was determined as 0.833 ± 0.044 in test [1] (500 nM); 0.538 ± 0.022 in test [1] (1000 nM); 0.958 ± 0.039 in test [2] (0.5 nM); 0.941 ± 0.017 in test [2] (1 nM); 0.98 ± 0.033 in test [2] (5 nM); 0.96 ± 0.02 in test [2] (10 nM). The surviving fraction in test [2] (50 nM) was determined as 0.975 ± 0.038; in test [2] (100 nM), 0.956 ± 0.047; in test [2] (500 nM) it was 0.987 ± 0.037; in test [2] (1000 nM), 0.992 ± 0.022.

Values taken from the supplement of paper PMC6045584.
